Here are results for 12 compounds from ChEMBL document CHEMBL3399936, “Selective CB2 receptor agonists. Part 1: the identification of novel ligands through computer-aided drug design (CADD) approaches” (Bioorg Med Chem Lett, 2015).

Values after ≈ are worked out from the molar mass of the structure shown.

Data set [1] deals with T1, Cannabinoid receptor 1 (Homo sapiens, UniProt P21554). Nature of the data set: Inhibition of human CB1 receptor expressed in CHO cells assessed as inhibition of forskolin-induced cAMP accumulation after 30 mins. In kind it is functional, cell-based. For orientation: Changes in cAMP serve as a functional read-out for many G protein-coupled receptors.
T1 sequence (P21554 whole entry): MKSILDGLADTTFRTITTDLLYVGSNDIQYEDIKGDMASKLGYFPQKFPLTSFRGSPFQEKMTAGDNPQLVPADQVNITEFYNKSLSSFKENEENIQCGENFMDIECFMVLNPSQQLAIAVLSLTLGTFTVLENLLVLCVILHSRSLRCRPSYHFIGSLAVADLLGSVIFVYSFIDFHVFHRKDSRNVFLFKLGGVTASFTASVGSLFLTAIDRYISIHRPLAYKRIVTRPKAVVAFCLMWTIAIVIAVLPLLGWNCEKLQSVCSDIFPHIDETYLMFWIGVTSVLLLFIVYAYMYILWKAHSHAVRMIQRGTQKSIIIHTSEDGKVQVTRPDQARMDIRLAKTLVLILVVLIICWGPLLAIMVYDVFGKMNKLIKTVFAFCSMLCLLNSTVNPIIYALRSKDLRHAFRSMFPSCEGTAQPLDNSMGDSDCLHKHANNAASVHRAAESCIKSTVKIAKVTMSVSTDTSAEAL
A further data set is filed under the species Homo sapiens. Nature of the data set: Ratio of EC50 for human CB1 receptor to EC50 for human CB2 receptor.
The next data set concerns the target Cannabinoid receptor 2 (Homo sapiens, UniProt P34972). Nature of the data set: Inhibition of human CB2 receptor expressed in CHO cells assessed as inhibition of forskolin-induced cAMP accumulation after 30 mins. Type of data set: functional, cell-based.
The nature of data set [2]: Half life in human liver microsomes at 1 uM by LC/MS/MS analysis. In kind it is ADME. A general note: Microsomes from liver hold many membrane-bound enzymes, among them those of drug oxidation.
Data set [3] is described as follows: Solubility of the compound at pH 7.4 after 16 to 18 hrs by UV spectrophotometry. Type of data set: physicochemical. Conditions: buffer.
In data set [4] the target is T1, Cannabinoid receptor 1. Nature of the data set: Partial agonist activity at human CB1 receptor expressed in CHO cells assessed as cAMP accumulation after 30 mins. Type of data set: functional, cell-based.

Sequence of Cannabinoid receptor 2 (P34972 whole entry): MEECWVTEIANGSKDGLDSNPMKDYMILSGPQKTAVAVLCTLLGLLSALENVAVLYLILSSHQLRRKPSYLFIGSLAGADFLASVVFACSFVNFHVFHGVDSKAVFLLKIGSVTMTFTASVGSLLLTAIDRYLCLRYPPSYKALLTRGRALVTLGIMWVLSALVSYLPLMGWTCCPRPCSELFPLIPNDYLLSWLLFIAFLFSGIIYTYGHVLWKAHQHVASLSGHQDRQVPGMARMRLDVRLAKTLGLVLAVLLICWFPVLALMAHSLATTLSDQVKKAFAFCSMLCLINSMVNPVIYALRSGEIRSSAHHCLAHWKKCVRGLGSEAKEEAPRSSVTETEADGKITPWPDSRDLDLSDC

`O=C(Nc1cc(C(F)(F)F)on1)N1CCCN(C(=O)c2ccc(C(F)(F)F)cc2)CC1`: the EC50 (in general, the concentration needed to bring the measured effect to its halfway point) is 1000 nM on Cannabinoid receptor 1 [1] and 1.4 nM on Cannabinoid receptor 2. In the data set listed under Homo sapiens, the Ratio EC50 amounted to 714.

As for `CC(C)(C)c1cc(NC(=O)C(C)(C)S(=O)(=O)c2ccc(C(F)(F)F)cn2)no1`, the half-life (commonly the time in which the quantity being followed falls by half) at 1 µM in data set [2] was below 5 min. For the same compound, the EC50 on Cannabinoid receptor 1 [1] was 420 nM; on Cannabinoid receptor 2, 3 nM. Further, the Ratio EC50 in the data set listed under Homo sapiens was found to be 140. For the same compound, the concentration in solution in data set [3] (solubility) was 12 µg/mL (≈ 28.6 µM).

`CC(C)(C)c1cc(NC(=O)[C@]2(C)CCCN2c2ccc(Cl)cc2)no1`: at Cannabinoid receptor 1 [1], the EC50 is 54 nM. Besides, in the data set listed under Homo sapiens, the Ratio EC50 worked out at 257.

On to `CC(C)(C)c1cc(NC(=O)N2CC3CC2CN3C(=O)c2ccc(C(F)(F)F)cc2)no1` (stereo not given), for which the EC50 on Cannabinoid receptor 2 was above 20 nM.

Regarding `CC(C)(C)c1cc(NC(=O)C(C)(C)S(=O)(=O)c2ccc(C(F)(F)F)cc2)no1`, the results for the EC50 on Cannabinoid receptor 1 [1] and at Cannabinoid receptor 2 were 420 nM and 0.77 nM, respectively. For the same compound, in the data set filed under Homo sapiens, the Ratio EC50 is 545.

Regarding `CC(C)(C)c1cc(NC(=O)[C@H]2CCCN2c2ccc(C(F)(F)F)cc2)no1`, the Activity on Cannabinoid receptor 1 [4] is below 70%.

As to `CCCCc1ccc(NC(=O)N2CCN(C(=O)CCC3CCCC3)CC2)cc1`, the EC50 at Cannabinoid receptor 2 is above 20 nM.

In the case of `O=C(Nc1cc(C(F)(F)F)on1)N1CCCN(C(=O)c2ccc(C(F)(F)F)cn2)CC1`, the half-life at 1 µM in data set [2] was found to be 9 min. In addition, the EC50 at Cannabinoid receptor 1 [1] amounted to 253 nM; on Cannabinoid receptor 2, 5 nM. In the data set filed under Homo sapiens, the Ratio EC50 is 50. Further, the concentration in solution in data set [3] (solubility) came to 0.4 µg/mL (≈ 0.886 µM).

On to `CC(C)(C)c1cc(NC(=O)[C@H]2CCCN2c2ccc(Cl)cc2)no1`, for which the Activity on Cannabinoid receptor 1 [4] was below 70%.

On to `CC(C)(C)c1cc(NC(=O)[C@]2(C)CCCN2c2ccc(C(F)(F)F)cn2)no1`, for which the EC50 at Cannabinoid receptor 1 [1] stood at 0.5 nM; on Cannabinoid receptor 2, 0.04 nM. For the same compound, the Ratio EC50 in the data set filed under Homo sapiens was 12.

With `CC(C)(C)c1cc(NC(=O)[C@@H]2CCCN2c2ncc(C(F)(F)F)cc2Cl)no1`, the EC50 on Cannabinoid receptor 1 [1] was found to be 7 nM. In the data set listed under Homo sapiens, the Ratio EC50 was 88.

Take `CC(C)(C)c1cc(NC(=O)[C@]2(C)CCCN2c2ccc(C(F)(F)F)cc2)no1`: the EC50 on Cannabinoid receptor 1 [1] worked out at 15 nM; at Cannabinoid receptor 2, 0.29 nM. Further, the Ratio EC50 in the data set listed under Homo sapiens came to 52.
